# In patent US20260041649A1, “ANTI-INFLAMMATORY AGENT” (WATANABE OYSTER LABORATORY, CO., LTD., priority 2023, published 2026):
# What was measured:
# [1] = test system: mouse macrophage RAW264.7 cells; assay: Cell proliferation of RAW264.7 cells (cell count); format: cell-based; conditions: DHMBA 1, 10, 100 or 1000 μM, 1 to 4 days
# Description: FIG. 2 is an explanatory diagram describing that the marine factor 3,5-dihydroxy-4-methoxybenzyl alcohol (DHMBA) suppresses the proliferation of mouse macrophage RAW264.7 cells. RAW264.7 cells (1×10^5 cells/ml per well in a 24-well plate) were cultured in a DMEM culture medium containing 10% FBS (fetal bovine serum), 1% P/S (penicillin/streptomycin), and 1% fungizone in a control group (1% ethanol; 0 μM DHMBA as final concentration) and in a DHMBA-treated group (0.1, 1, 10, 100, or 1000 μM) for 1 day (panel A), 2 days (B), 3 days (C), or 4 days (D). After the culture, the number of cells attached to the dish was counted. Data are presented as the mean±SD (standard deviation) from a total of 8 wells in 2 plates using different cell preparations. *: Significant difference (p<0.001) between the control group (gray bars) and the DHMBA-treated group. Statistical analysis was performed using 1-way ANOVA with Tukey-Kramer post-test.
# After the culture, to detach the cells from each well, a Ca^2+/Mg^2+ free PBS solution with 0.05% trypsin/EDTA was added to the culture dish (0.1 ml per well) and incubated at 37° C. for 2 min. […]
# The number of viable cells was counted under a microscope (Olympus MTV-3) using a hemocytometer (Sigma-Aldrich) and a cell counter (H-102P, Line Seiki Co., Ltd., Tokyo, Japan). […]
# [2] = test system: RAW264.7 cells cultured with LPS; assay: Cell death of RAW264.7 cells cultured with LPS; format: cell-based, mouse; conditions: DHMBA 1 or 10 μM, LPS 100 ng/ml, 48 hours, subconfluent cells
# Description: In FIG. 5A, to examine the effect on cell proliferation, RAW264.7 cells (1×10^5/ml/well) were cultured for 3 days in a DMEM culture medium containing 10% FBS, 1% P/S, and 1% fungizone in the control group (1% ethanol as final concentration) with or without LPS (1, 10, 50, 100, 500 ng/ml). In FIG. 5B, cells (1×10^5/ml per well) were cultured for 3 days in a DMEM culture medium containing 10% FBS, 1% P/S, and 1% fungizone in the DHMBA-treated group (1 or 10 μM) with or without LPS (100 ng/ml). In FIG. 5C, to examine the effect on cell death, cells that had reached subconfluence after 3 days of culture were cultured for another 48 hours in the control group (1% ethanol) with or without LPS (1, 10, 50, 100, or 500 ng/ml). […] After the culture, the number of cells attached to the dish was counted. […]
# In an additional experiment, to determine the effect of DHMBA on RAW264.7 cell death, RAW264.7 cells were cultured in the presence of LPS. […] After the culture, the cells were detached with a Ca^2+/Mg^2+ free PBS solution with 0.05% trypsin/EDTA (0.1 ml per well) as described in the “Cell proliferation assay” section, and the cells were counted as described in the “Cell count” section below. […]
# The number of viable cells was counted under a microscope (Olympus MTV-3) using a hemocytometer (Sigma-Aldrich) and a cell counter (H-102P, Line Seiki Co., Ltd., Tokyo, Japan).
smiles,measurement,setting,value
"COc1c(O)cc(CO)cc1O [DHMBA, 3,5-dihydroxy-4-methoxybenzyl alcohol]",proliferation of RAW264.7 cells (number of cells attached to the dish),[1],inhibited
same,effect on RAW264.7 cell death in the presence of LPS,[2],exhibited
